Test results reported in patent publication US20160252532A1, “pH-Biosensors Based on Compounds Produced From Pyruvic Acid For Magnetic Resonance Imaging and Spectroscopy and Their Uses” (TECHNISCHE UNIVERSITÄT MÜNCHEN, priority 2013, published 2016).

Experiments:
[1] = test system: MCF-7 tumor cells; test: 13C-OMPD in cell culture medium with MCF-7 tumor cells immobilized in alginate beads (extracellular pH); assay type: cell-based; conditions: ca. 6 mM fully-labeled 13C-OMPD, ca. 10 Mio. MCF-7 cells, 10 hours
Experimental: Ten ^13C-spectra (proton decoupled) of ca. 6 mM fully-labeled ^13C-OMPD dissolved in cell culture medium with ca. 10 Mio. MCF-7 tumor cells immobilized in alginate beads were acquired during a total time of 10 hours within every hour.
The pH sensitive OMPD-peaks 1, 5 and 6 of zymonic acid were also observed in ^13C-NMR spectra of ^13C-OMPD dissolved in cell culture medium with MCF-7 tumor cells immobilized in alginate beads.

[2] = test system: HeLa cells; test: MTT assay cell viability (cytotoxicity test); assay type: cell-based; conditions: 0.4 to 50 mM, 24 hours, up to tested concentration of 50 mM, ZA 100% pure, OMPD 80% OMPD/20% ZA
Experimental: MTT assay with HeLa cells for testing cell viability after exposure to (A) OMPD and (B) zymonic acid (ZA) (0.4 to 50 mM) for 24 hours.
(12C, ZA: 100% pure; OMPD: 80% OMPD, 20% ZA).
Purified zymonic acid and OMPD were tested in a MTT assay with HeLa cells for testing cell viability after exposure to each substance at concentrations of 0.4 to 50 mM for 24 hours. After 24 hours incubation time, both substances are not cytotoxic up to the tested concentration of 50 mM.

[3] = Stability in aqueous solution; assay type: physicochemical
Experimental: An exemplary ^13C spectrum (left column) and ^1H spectrum (right column) of zymonic acid produced from [1-^13C]-pyruvic acid. The relevant peaks 1 to 5, which shift in dependency of the pH value of the sample, are marked. The proton spectra show a buffered solution of zymonic acid in water and D2O, once measured right after preparation of the solution (top right) and 24 h later (bottom right).
The assignment of the NMR-peaks of zymonic acid was done using NMR prediction software (ChemDraw®) and standard 1D- and 2D-NMR-spectroscopy (see FIG. 5). […] The relevant peaks 1 to 5, which shift in dependency of the pH value of the sample, are marked. […] The proton spectra show a buffered solution of zymonic acid in water and D2O, once measured right after preparation of the solution (top right of FIG. 5) and 24 h later (bottom right of FIG. 5).

[4] = test system: rats; test: Toxicity tests in rats; assay type: in vivo
Experimental: Toxicity tests with a volume of 5 mL/kg at an injection rate of 0.2 mL/s for three different concentrations (20 mM (A), 40 mM (B), 80 mM (C)). Injection solution contained 80 mM Tris buffer solution, titrated with 1M NaOH to pH 7.4.
20 mM, 40 mM, and 80 mM zymonic acid were injected into 3 rats within one week with 1 day break in between each injection (see FIG. 14).
Blood pressure, heart rate, blood oxygenation and animal temperature were monitored 10 minutes before and after the injection.

[5] = test system: rat bladder; test: In vivo pH determination in rat bladder with copolarized zymonic acid and urea; conditions: injection into rat bladder via catheter, 10 mm slice
Source text: FIG. 19. Copolarization of zymonic acid and urea, injection into the rat bladder via a catheter.
A 10 mm slice covering the bladder volume was chosen.
6 injections of copolarized zymonic acid in healthy rats via a catheter directly into the bladder followed by pH-imaging and pH-control of the urine before an after injection by pH-electrode (see FIG. 19).

[6] = cited from earlier work

| Compound | metabolism within tumor cells [1] | cytotoxicity (cell viability, MTT) [2] | stability in aqueous solutions [3] | behaviour of the animals ([4]; 20, 40 and 80 mM injections) | survival after injections ([4]; 20, 40 and 80 mM, 5 mL/kg, 3 rats, injections within one week) | health problems ([4]; 20, 40 and 80 mM, even after 3 days post last injection) | decomposition in buffered solution ([3]; buffered solution in water and D2O, 24 hours, also cites Montgomery et al., 1956) | agreement of NMR-measured pH with electrode pH [5] | pKa of the enolic group [6] |
| --- | --- | --- | --- | --- | --- | --- | --- | --- | --- |
| C/C(=C/C(=O)C(=O)O)C(=O)O [OMPD, (Z)-4-methyl-2-oxopent-3-enedioic acid] | not metabolized within tumor cells | not cytotoxic | stable in aqueous solutions |  |  |  |  |  |  |
| CC1(C(=O)O)C=C(O)C(=O)O1 (stereo not shown) [zymonic acid, 4-hydroxy-2-methyl-5-oxo-2,5-dihydrofuran-2-carboxylic acid] |  | not cytotoxic |  | No unusual behaviour | survived all injections | did not show health problems | slowly decomposed into parapyruvate within a period of 24 hours | Electrode pH measurements confirm the pH values measured by NMR spectroscopy | 6.95 |
